Data on seven molecules can be found in patent publication US5223637A, “KS-506 compounds” (Kyowa Hakko Kogyo Co., Ltd., priority 1988, dated 1993).

Values after ≈ are worked out from the molar mass of the structure shown. Where a name gives a salt, the structure may show the parent alone.

A short description of one data set: Solubility. The settings on record: for Solubility (solvents in which insoluble): hexane and water; for Solubility (solvents in which soluble): organic solvents as listed. The class given is physicochemical.
For data set [1], the system named is PDE preparation partially purified from bovine cerebral cortex. Nature of the data set: PDE-inhibiting activity (Experimental Example 1). The class given is biochemical. To be noted: 1.2 mM cAMP, 4 U/ml calmodulin, 50 μM calcium chloride, pH 6.9, 30° C., 30 minutes. The method, then: Methanol solutions of the test compounds at various concentrations (50 μl each) were respectively added to 500 μl of a reaction mixture comprising 80 mM imidazole-hydrochloride buffer (pH 6.9), 3 mM magnesium sulfate, 0.3 mM dithiothreitol, 100 mM sodium chloride, 50 μM calcium chloride, 1.2 mM cAMP, 4 U/ml calmodulin (1U is defined as the amount which activates 50% of the maximum activity of PDE under the conditions) and 26 mU/ml PDE (1U is defined as the amount which hydrolyzes 1 μmol of cAMP in one minute), and reaction was allowed to proceed at 30° C. for 30 minutes.
The reaction was discontinued by heating at 100° C. for 5 minutes. Then, 6 μmol of manganese chloride and 0.2 U of 5'-nucleotidase (1U is defined as the amount which forms 1 μmol of phosphoric acid in one minute) were added to the reaction mixture, and reaction was allowed to proceed at 30° C. for 30 minutes. […] Inhibition rate was calculated in accordance with the following equation:
Inhibition rate=(A-B)/A×100 (%)
A: Amount of the inorganic phosphoric acid formed in the absence of a test compound
B: Amount of the inorganic phosphoric acid formed in the presence of a test compound

Data set [2] relates to Rat Peritoneal Exudate Cells. Nature of the data set: Effect on Histamine Release from Rat Peritoneal Exudate Cells (Experimental Example 2). The class given is cell-based. The settings on record: phosphatidyl-L-serine and concanavalin A stimulation; for IC50: 37° C., read-out: IC50 (concentration of a test compound which inhibits histamine release by 50%). The method, then:
Effect on Histamine Release from Rat Peritoneal Exudate Cells
1) Preparation of Suspension of Rat Abdominal Cavity Cells and Effect on Histamine Release
Rats weighing from 350 to 450 g were sacrificed by exsanguination under dry ether anesthesia, and a medium for mast cells (composition : 150 mM NaCl, 3.7 mM KCl, 3 mM Na2 HPO4, 3.5 mM KH2 PO4, 1 mM CaCl2, 5.6 mM glucose, 0.1% bovine serum albumin and 10 U/ml heparin) prepared according to the method of Sullivan, et al. [J. Immunol. 114, 1473 (1973)] was intraperitoneally injected into the animals in an amount of 15 ml/animal. After massage of the abdominal parts for 2 minutes, the animals were subjected to celiotomy to sample exudate in the abdominal cavities. The collected exudate was subjected to centrifugation at 100 xg at 4° C. for 5 minutes, and the precipitate was mixed with an appropriate amount of the ice-cooled medium for mast cells mentioned above to prepare a suspension. Then, the centrifugation and the addition of the medium were repeated three times to prepare a cell suspension wherein the final concentration of the mast cells was about 2×10^5 cells/ml. Identification of the mast cells was carried out by staining intracellular granules with 0.05% Toluidine Blue.
One milliliter portions of the thus obtained cell suspension were preincubated at 37° C. for 5 minutes, and then respectively mixed with 0.1 ml each of test compound solutions having various concentrations,followed by incubation for 5 minutes. The incubated mixtures were further mixed with 0.1 ml each of 10 μg/ml phosphatidyl-L-serine and concanavalin A, and then incubated for 15 minutes.
Spontaneous histamine release was determined under similar incubation conditions except that physiological saline was used in place of phosphatidyl-L-serine and concanavalin A.
The reaction was stopped by addition of 3 ml of ice-cooled physiological saline, and the cell suspension was subjected to centrifugation at 1100 xg at 4° C. for 10 minutes to obtain a supernatant and a residue. Histamine contents of the supernatant and the residue were measured by the fluorescence method according to the method of Komatsu [Allergy 27, 67 (1978)]. Histamine release rate was indicated as the percentage of the histamine content of the supernatant to the total histamine content of the cells. The rate of inhibition of histamine release by the test compound solution was calculated according to the following equation: [formula]

Regarding `Cc1c(C)c(C(=O)Oc2c(C)c(O)c(C)c(C)c2C(=O)SSC(=O)c2c(C)c(C)c(O)c(C)c2OC(=O)c2c(C)c(C)c(O)c(C)c2O)c(O)c(C)c1O` [KS-506a], in the data set “Solubility”, the “Solubility (solvents in which insoluble)” value was “insoluble in hexane and water”; the “Solubility (solvents in which soluble)” value was “soluble in methanol, ethanol, acetone, ethyl acetate, acetonitrile, dimethylsulfoxide and chloroform”. For the same molecule, the “IC50 (concentration of a test compound inhibiting 50% of the PDE activity)” value in data set [1] stood at 1.22 µg/mL.

Turning to `Cc1c(C)c(C(=O)Oc2c(C)c(O)c(C)c(C)c2SSc2c(C)c(C)c(O)c(C)c2OC(=O)c2c(C)c(C)c(O)c(C)c2O)c(O)c(C)c1O` [KS-506g], in “Solubility”, the “Solubility (solvents in which insoluble)” value is “insoluble in hexane and water”; the “Solubility (solvents in which soluble)” value is “soluble in methanol, ethanol, acetone, ethyl acetate, acetonitrile, dimethylsulfoxide and chloroform”. Further, the “IC50 (concentration of a test compound inhibiting 50% of the PDE activity)” value in data set [1] stood at 0.080 µg/mL.

Usually inhibition stands for the drop in the measured response relative to a control, in per cent. With `COC(=O)c1c(C)c(C)c(O)c(C)c1OC(=O)c1c(C)c(C)c(O)c(C)c1O` [KS-506h], the inhibition at 3 µg/mL in data set [2] (concentration of test compound 3.0 μg/ml, read-out: Release inhibition rate) was 13.9%. In addition, in data set [2] (concentration of test compound 10.0 μg/ml, read-out: Release inhibition rate), the inhibition at 10 µg/mL was 59.9%. In data set [2], the IC50 came out at 8.2 µg/mL (≈ 21.1 µM). Moreover, in the data set “Solubility”, the “Solubility (solvents in which insoluble)” value is “insoluble in hexane and water”; the “Solubility (solvents in which soluble)” value was “soluble in methanol, acetone, ethyl acetate, acetonitrile and dimethylsulfoxide”.

Take `CC(=O)CCSC(=O)c1c(C)c(C)c(O)c(C)c1OC(=O)c1c(C)c(C)c(O)c(C)c1O` [KS-506m]: the inhibition at 0.5 µg/mL in data set [2] (concentration of test compound 0.5 μg/ml, read-out: Release inhibition rate) is 27.9%. Besides, the inhibition at 1.5 µg/mL in data set [2] (concentration of test compound 1.5 μg/ml, read-out: Release inhibition rate) came to 58.4%. In data set [2] (concentration of test compound 5.0 μg/ml, read-out: Release inhibition rate), the inhibition at 5 µg/mL was 83.3%. Further, the IC50 in data set [2] amounted to 1.2 µg/mL (≈ 2.61 µM). In addition, in the data set “Solubility”, the “Solubility (solvents in which insoluble)” value was “insoluble in hexane and water”; the “Solubility (solvents in which soluble)” value was “soluble in methanol, acetone, ethyl acetate, acetonitrile and dimethylsulfoxide”.

With `Cc1c(C)c(C(=O)Oc2c(C)c(O)c(C)c(C)c2SSC(=O)c2c(C)c(C)c(O)c(C)c2OC(=O)c2c(C)c(C)c(O)c(C)c2O)c(O)c(C)c1O` [KS-506x], in the data set “Solubility”, the “Solubility (solvents in which insoluble)” value was “insoluble in hexane and water”; the “Solubility (solvents in which soluble)” value is “soluble in methanol, ethanol, acetone, ethyl acetate, acetonitrile, dimethylsulfoxide and chloroform”. For the same molecule, the “IC50 (concentration of a test compound inhibiting 50% of the PDE activity)” value in data set [1] is 0.28 µg/mL.

As to `COc1ccc(Cc2nccc3cc(OC)c(OC)cc23)cc1OC` [Papaverine hydrochloride, reference compound], in data set [1], the “IC50 (concentration of a test compound inhibiting 50% of the PDE activity)” value was found to be 60 µg/mL.

Take `COc1c(O)cc2cc(C)oc(=O)c2c1O` [Reticurol, reference compound]: the “IC50 (concentration of a test compound inhibiting 50% of the PDE activity)” value in data set [1] is 20 µg/mL.
